Source: US8008303B2, “Biphenyl derivatives and their use in treating hepatitis C” (AstraZeneca AB, priority 2005, dated 2011)
Read-outs that look alike come from different tables or passages of the source.

How the values were obtained:
[1] = system: HCV replicon cells Huh 9B; type: cell-based
[2] = system: HCV replicon cells Huh 9B; assay: HCV replicon assay (luciferase readout); type: cell-based
Procedure, shortened: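 Compounds, made up at twice final strength (final DMSO 1%), were added to subgenomic replicon cells one day after plating. Incubation then ran 72 h at 37 °C, 5% CO2, without G418. Replication was quantified as firefly luciferase luminescence in lysed cells, with cytotoxicity assessed on a duplicate clear plate.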

[3] = concentration reducing total cell area by 50% relative to DMSO controls, methylene blue, absorbance 620 nm, 72 h incubation
[4] = Hepatitis C virus, 72 h, concentration reducing replicon level (luciferase activity) by 50% vs untreated cell control, 72 h incubation

| Structure (SMILES) | TD50 [1] | IC50 [2] [nM] | TD50 [1, 3] | IC50 [2, 4] [nM] |
| --- | --- | --- | --- | --- |
| COc1cccc(NC(=O)c2cccc(-c3ccc(C(=O)Nc4ccc(N5CCOCC5)cc4)cc3C)c2)c1 [Example 62, 2′-Methyl-biphenyl-3,4′-dicarboxylic acid 3-[(3-methoxy-phenyl)-amide] 4′-[(4-morpholin-4-yl-phenyl)-amide]] | * (key: * < 50 μM; ** > 50 μM) | < 1000 | – | – |
| Cc1cc(C(=O)Nc2ccc(N3CCOCC3)cc2)ccc1-c1cccc(C(=O)Nc2ccc3cn[nH]c3c2)c1 [Example 63, 2′-Methyl-biphenyl-3,4′-dicarboxylic acid 3-[(1H-indazol-6-yl)-amide] 4′-[(4-morpholin-4-yl-phenyl)-amide]] | * (key: * < 50 μM; ** > 50 μM) | < 1000 | – | – |
| Cc1cc(C(=O)Nc2ccc(N3CCOCC3)cc2)ccc1-c1cccc(C(=O)Nc2cccc(Br)c2)c1 [Example 64, 2′-Methyl-biphenyl-3,4′-dicarboxylic acid 3-[(3-bromo-phenyl)-amide] 4′-[(4-morpholin-4-yl-phenyl)-amide]] | * (key: * < 50 μM; ** > 50 μM) | < 1000 | – | – |
| Cc1cc(C(=O)Nc2ccc(N3CCOCC3)cc2)ccc1-c1cccc(C(=O)Nc2ccc(-c3ccno3)cc2)c1 [Example 65, 2′-Methyl-biphenyl-3,4′-dicarboxylic acid 3-[(4-isoxazol-5-yl-phenyl)-amide] 4′-[(4-morpholin-4-yl-phenyl)-amide]] | * (key: * < 50 μM; ** > 50 μM) | < 1000 | – | – |
| Cc1cc(C(=O)Nc2ccc(N3CCOCC3)cc2)ccc1-c1cccc(C(=O)NCc2cccc(Cl)c2)c1 [Example 66, 2′-Methyl-biphenyl-3,4′-dicarboxylic acid 3-(3-chloro-benzylamide) 4′-[(4-morpholin-4-yl-phenyl)-amide]] | * (key: * < 50 μM; ** > 50 μM) | 1000 to 5000 | – | – |
| Cc1ccc(C(=O)Nc2ccc(N3CCOCC3)cc2)cc1-c1ccc(C(=O)Nc2ccc3cn[nH]c3c2)cc1 [Example 67, 6-Methyl-biphenyl-3,4′-dicarboxylic acid 4′-[(1H-indazol-6-yl)-amide] 3-[(4-morpholin-4-yl-phenyl)-amide]] | ** (key: * < 50 μM; ** > 50 μM) | < 1000 | – | – |
| Cc1ccc(NC(=O)c2ccc(N3CCOCC3)cc2)cc1-c1ccc(C(=O)Nc2cccc(OC(F)(F)F)c2)cc1 [Example 68, 2′-Methyl-5′-(4-morpholin-4-yl-benzoylamino)-biphenyl-4-carboxylic acid (3-trifluoromethoxy-phenyl)-amide] | – | – | ** (** > 50 μM) | 1000 to 5000 |
| Cc1ccc(C(=O)Nc2ccc(N3CCOCC3)cc2)cc1-c1ccc(C(=O)Nc2cccc(CN3CCSCC3)c2)cc1 [Example 69, 6-Methyl-biphenyl-3,4′-dicarboxylic acid 3-[(4-morpholin-4-yl-phenyl)-amide] 4′-[(3-thiomorpholin-4-ylmethyl-phenyl)-amide]] | * (key: * < 50 μM; ** > 50 μM) | < 1000 | – | – |
| Cc1ccc(C(=O)Nc2ccc(N3CCOCC3)cc2)cc1-c1ccc(C(=O)Nc2ccc(C(=O)N(C)C)cc2)cc1 [Example 70, 6-Methyl-biphenyl-3,4′-dicarboxylic acid 4′-[(4-dimethylcarbamoyl-phenyl)-amide] 3-[(4-morpholin-4-yl-phenyl)-amide]] | * (key: * < 50 μM; ** > 50 μM) | 1000 to 5000 | – | – |
| CCC1(c2ccc(NC(=O)c3ccc(-c4cc(C(=O)Nc5ccc(N6CCOCC6)cc5)ccc4C)cc3)cc2)CCC(O)NC1=O (stereo not shown) [Example 71, 6-Methyl-biphenyl-3,4′-dicarboxylic acid 4′-{[4-(3-ethyl-6-hydroxy-2-oxo-piperidin-3-yl)-phenyl]-amide} 3-[(4-morpholin-4-yl-phenyl)-amide]] | * (key: * < 50 μM; ** > 50 μM) | < 1000 | – | – |
| CC(=O)Nc1cccc(NC(=O)c2ccc(-c3cc(C(=O)Nc4ccc(N5CCOCC5)cc4)ccc3C)cc2)c1 [Example 72, 6-Methyl-biphenyl-3,4′-dicarboxylic acid 4′-[(3-acetylamino-phenyl)-amide] 3-[(4-morpholin-4-yl-phenyl)-amide]] | * (key: * < 50 μM; ** > 50 μM) | 1000 to 5000 | – | – |
| Cc1ccc(C(=O)Nc2ccc(N3CCOCC3)cc2)cc1-c1ccc(C(=O)Nc2ccc(CN3CCCCC3)cc2)cc1 [Example 73, 6-Methyl-biphenyl-3,4′-dicarboxylic acid 3-[(4-morpholin-4-yl-phenyl)-amide] 4′-[(4-piperidin-1-ylmethyl-phenyl)-amide]] | * (key: * < 50 μM; ** > 50 μM) | < 1000 | – | – |
| Cc1ccc(C(=O)Nc2ccc(N3CCOCC3)cc2)cc1-c1ccc(C(=O)Nc2ccc(CN3CCOCC3)cc2)cc1 [Example 74, 6-Methyl-biphenyl-3,4′-dicarboxylic acid 4′-[(4-morpholin-4-ylmethyl-phenyl)-amide] 3-[(4-morpholin-4-yl-phenyl)-amide]] | * (key: * < 50 μM; ** > 50 μM) | 1000 to 5000 | – | – |
| Cc1ccc(C(=O)Nc2ccc(N3CCOCC3)cc2)cc1-c1ccc(C(=O)Nc2ccc(CN3CCCC3)cc2)cc1 [Example 75, 6-Methyl-biphenyl-3,4′-dicarboxylic acid 3-[(4-morpholin-4-yl-phenyl)-amide] 4′-[(4-pyrrolidin-1-ylmethyl-phenyl)-amide]] | * (key: * < 50 μM; ** > 50 μM) | > 5000 | – | – |
| CCCN(C)Cc1ccc(NC(=O)c2ccc(-c3cc(C(=O)Nc4ccc(N5CCOCC5)cc4)ccc3C)cc2)cc1 [Example 76, 6-Methyl-biphenyl-3,4′-dicarboxylic acid 4′-({4-[(methyl-propyl-amino)-methyl]-phenyl}-amide) 3-[(4-morpholin-4-yl-phenyl)-amide]] | * (key: * < 50 μM; ** > 50 μM) | 1000 to 5000 | – | – |
| CC(=O)Nc1cc(NC(=O)c2ccc(-c3cc(C(=O)Nc4ccc(N5CCOCC5)cc4)ccc3C)cc2)ccc1C [Example 77, 6-Methyl-biphenyl-3,4′-dicarboxylic acid 4′-[(3-acetylamino-4-methyl-phenyl)-amide] 3-[(4-morpholin-4-yl-phenyl)-amide]] | * (key: * < 50 μM; ** > 50 μM) | 1000 to 5000 | – | – |
| Cc1ccc(C(=O)Nc2ccc(N3CCOCC3)cc2)cc1-c1ccc(C(=O)Nc2cccc(NS(C)(=O)=O)c2)cc1 [Example 78, 6-Methyl-biphenyl-3,4′-dicarboxylic acid 4′-[(3-methanesulfonylamino-phenyl)-amide] 3-[(4-morpholin-4-yl-phenyl)-amide]] | * (key: * < 50 μM; ** > 50 μM) | 1000 to 5000 | – | – |
| Cc1ccc(C(=O)Nc2ccc(N3CCOCC3)cc2)cc1-c1ccc(C(=O)Nc2ccc3[nH]c(=O)[nH]c3c2)cc1 [Example 79, 6-Methyl-biphenyl-3,4′-dicarboxylic acid 3-[(4-morpholin-4-yl-phenyl)-amide] 4′-[(2-oxo-2,3-dihydro-1H-benzoimidazol-5-yl)-amide]] | * (key: * < 50 μM; ** > 50 μM) | > 5000 | – | – |
| Cc1ccc(C(=O)Nc2ccc(N3CCOCC3)cc2)cc1-c1ccc(C(=O)Nc2ccccc2CN2CCCCC2)cc1 [Example 80, 6-Methyl-biphenyl-3,4′-dicarboxylic acid 3-[(4-morpholin-4-yl-phenyl)-amide] 4′-[(2-piperidin-1-ylmethyl-phenyl)-amide]] | * (key: * < 50 μM; ** > 50 μM) | 1000 to 5000 | – | – |
| Cc1ccc(C(=O)Nc2ccc(N3CCOCC3)cc2)cc1-c1ccc(C(=O)Nc2ccc(CO)cc2)cc1 [Example 81, 6-Methyl-biphenyl-3,4′-dicarboxylic acid 4′-[(4-hydroxymethyl-phenyl)-amide] 3-[(4-morpholin-4-yl-phenyl)-amide]] | * (key: * < 50 μM; ** > 50 μM) | 1000 to 5000 | – | – |
| Cc1ccc(C(=O)Nc2ccc(N3CCOCC3)cc2)cc1-c1ccc(C(=O)Nc2ccc(CN3CCNCC3)cc2)cc1 [Example 82, 6-Methyl-biphenyl-3,4′-dicarboxylic acid 3-[(4-morpholin-4-yl-phenyl)-amide] 4′-[(4-piperazin-1-ylmethyl-phenyl)-amide]] | * (key: * < 50 μM; ** > 50 μM) | 1000 to 5000 | – | – |
| Cc1ccc(C(=O)Nc2ccc(N3CCOCC3)cc2)cc1-c1ccc(C(=O)NCc2cccc(Cl)c2)cc1 [Example 83, 6-Methyl-biphenyl-3,4′-dicarboxylic acid 4′-(3-chloro-benzylamide) 3-[(4-morpholin-4-yl-phenyl)-amide]] | ** (key: * < 50 μM; ** > 50 μM) | 1000 to 5000 | – | – |
| CCOC(=O)c1ccc(-c2cc(C(=O)Nc3ccc(N4CCOCC4)cc3)ccc2C)cc1 [Example 84, 2′-Methyl-5′-(4-morpholin-4-yl-phenylcarbamoyl)-biphenyl-4-carboxylic acid ethyl ester] | – | – | ** (** > 50 μM) | > 5000 |
| Cc1ccc(NC(=O)c2ccc(N3CCOCC3)cc2)cc1-c1ccc(C(=O)Nc2ccc3[nH]c(C(F)(F)F)nc3c2)cc1 [Example 85, 2′-Methyl-5′-(4-morpholin-4-yl-benzoylamino)-biphenyl-4-carboxylic acid (2-trifluoromethyl-1H-benzoimidazol-5-yl)-amide] | – | – | ** (** > 50 μM) | 1000 to 5000 |
| CC(=O)Nc1ccc(NC(=O)c2ccc(-c3cc(NC(=O)c4ccc(N5CCOCC5)cc4)ccc3C)cc2)cc1 [Example 86, 2′-Methyl-5′-(4-morpholin-4-yl-benzoylamino)-biphenyl-4-carboxylic acid (4-acetylamino-phenyl)-amide] | – | – | ** (** > 50 μM) | 1000 to 5000 |
| Cc1ccc(NC(=O)c2ccc(N3CCOCC3)cc2)cc1-c1ccc(C(=O)Nc2ccc(CN3CCS(=O)(=O)CC3)cc2)cc1 [Example 87, 2′-Methyl-5′-(4-morpholin-4-yl-benzoylamino)-biphenyl-4-carboxylic acid [4-(1,1-dioxo-1lambda*6*-thiomorpholin-4-ylmethyl)-phenyl]-amide] | – | – | ** (** > 50 μM) | < 1000 |
